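1) Cells in 96-well plates. 2) Compound, 48 h, 5 concentrations. 3) Linear interpolation between surrounding doses. 4) Unreached endpoint = highest concentration. TGI denotes the concentration required for complete inhibition of growth.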

Test systems include LOX IMVI melanoma; SNB-19 CNS; OVCAR-3 ovarian; UO-31 renal; MOLT-4 leukemia; SF-539 CNS; EKVX NSCLC; SF-268 CNS; MCF7 breast; HT29 colon.
Experiment in all cases: NCI-60 cell line screen, 48 h

Turning to `OC1C=C2C3CN(Cc4cc5c(cc43)OCO5)[C@H]2C[C@@H]1O` (stereo not given in full), the TGI in the assay on LOX IMVI melanoma was over 100 µM; with SNB-19 CNS, 76.1 µM; in the assay on OVCAR-3 ovarian, over 100 µM; in the assay with UO-31 renal, 71.4 µM; with MOLT-4 leukemia, over 100 µM; in the assay with SF-539 CNS, over 100 µM. For the same compound, the TGI in the assay with EKVX NSCLC is 28.6 µM; in the assay with SF-268 CNS, over 100 µM; in the assay on MCF7 breast, 22.2 µM; with HT29 colon it was 46.3 µM.
For the compound `COc1ccc(/C=c2/[nH]c(=O)/c(=C\c3ccc(OCc4ccccc4)cn3)[nH]c2=O)cc1`, the TGI in the assay on LOX IMVI melanoma, in the assay with SNB-19 CNS, with OVCAR-3 ovarian, with UO-31 renal, with MOLT-4 leukemia and in the assay with SF-539 CNS was over 100 µM throughout. Besides, the TGI with EKVX NSCLC, with SF-268 CNS, with MCF7 breast and in the assay on HT29 colon was over 100 µM each time.
Regarding `COc1nc(C#CCCCC#N)nc(OC)n1`, the TGI was 14.2 µM with LOX IMVI melanoma; over 100 µM in the assay on SNB-19 CNS; 28 µM with OVCAR-3 ovarian; 24.9 µM with UO-31 renal; over 100 µM in the assay on MOLT-4 leukemia; 53.7 µM in the assay on SF-539 CNS. Also, the TGI in the assay with EKVX NSCLC was 39.2 µM; in the assay on SF-268 CNS it was 94.4 µM; in the assay with MCF7 breast, 22.1 µM; in the assay with HT29 colon, over 100 µM.
Turning to `CCn1cc(C(=O)O)c(=O)c2cc(F)c(N3CCN(Cn4c(O)c(N=NC(=O)c5ccncc5)c5cc(Cl)ccc54)CC3)cc21`, the TGI in the assay with LOX IMVI melanoma is over 100 µM; in the assay on SNB-19 CNS it was over 100 µM; in the assay with OVCAR-3 ovarian, over 100 µM; with UO-31 renal it was over 100 µM; with MOLT-4 leukemia, 36 µM; in the assay with SF-539 CNS, 63.1 µM. The TGI with EKVX NSCLC, in the assay on SF-268 CNS, with MCF7 breast and in the assay on HT29 colon was over 100 µM throughout.
Consider `O=C1CS(=O)(=O)C(c2cccc(Oc3ccccc3)c2)N1c1cccc(Cl)c1Cl` (stereo not given), for which the TGI with LOX IMVI melanoma was 47.7 µM; with SNB-19 CNS, over 100 µM; in the assay on OVCAR-3 ovarian, 57.3 µM; in the assay with UO-31 renal, over 100 µM; with MOLT-4 leukemia, 58.9 µM; with SF-539 CNS, 46.6 µM. In addition, the TGI in the assay with EKVX NSCLC is 83.7 µM; in the assay with SF-268 CNS, 55.2 µM; with MCF7 breast, 21.2 µM; in the assay with HT29 colon, 71.2 µM.
In the case of `O=c1c2c([nH]c3nccn13)CCCC2`, the TGI with LOX IMVI melanoma, in the assay with SNB-19 CNS, with OVCAR-3 ovarian, with UO-31 renal, in the assay with MOLT-4 leukemia and in the assay on SF-539 CNS was over 10 µM in each case. The TGI in the assay on EKVX NSCLC, in the assay on SF-268 CNS, in the assay on MCF7 breast and with HT29 colon was over 10 µM throughout.
For `COc1ccc(OC)c2sc(N3C(=O)/C(=C/c4ccccc4S)N=C3c3ccccc3)nc12`, the TGI is 60.4 µM with LOX IMVI melanoma; over 100 µM in the assay with SNB-19 CNS; over 100 µM in the assay on OVCAR-3 ovarian; 77.2 µM in the assay with UO-31 renal; 35 µM with MOLT-4 leukemia; 85.4 µM in the assay on SF-539 CNS. Also, the TGI was over 100 µM with EKVX NSCLC, over 100 µM in the assay on SF-268 CNS, 36.5 µM in the assay on MCF7 breast and over 100 µM with HT29 colon.
Regarding `O=C(O)C(Cc1ccccc1)N1C(=O)c2ccccc2C1=O` (stereo not given), the TGI with LOX IMVI melanoma, in the assay with SNB-19 CNS, in the assay with OVCAR-3 ovarian, in the assay on UO-31 renal, in the assay with MOLT-4 leukemia and with SF-539 CNS was over 100 µM each time. Also, the TGI with EKVX NSCLC, in the assay with SF-268 CNS, with MCF7 breast and in the assay on HT29 colon was over 100 µM each time.

Values taken from PubChem BioAssay (NCI).
